How the values were obtained:
[1] = Ivermectin solubility determination in excipients
Method: The solubility assessments were performed by continually adding a known amount of the API into each individual excipient and letting the excipient reach solubility equilibrium via API saturation (visible solid observed). The experiments were conducted at ambient conditions (25° C.) and were left to mix on a stir plate at 500 RPM for at least 72 hours.

[2] = Pharmacokinetics of Ivermectin B1a in SD rat plasma after IV or oral administration; conditions: 2 mg/kg, fasting, male
Method: Thirty-six male Sprague Dawley rats were randomly assigned into four groups, with nine male rats in each group. All animals in all groups are fasted overnight prior to the experimental date.
Blood samples were collected from 6 of 9 animals per group at 0.5, 1, 2, 3, 4, 6, 8, 24, 72, 120, 168 hours post-dose.

[3] = Excipient compatibility study at 40° C./75% RH (HPLC Assay/Related Substances); type: physicochemical; conditions: for Chromatographic purity by HPLC (% area) / Total Impurities % (% adjusted area): 40° C./75% RH; for Total Impurities % (% adjusted area): excluding API impurities
Method: An excipient compatibility study was initiated with selected excipients ranging from oils to surfactants based on equilibrium solubility results (Table 2). […] After solutions were prepared using a hand-held homogenizer (Model IKAT10 Ultra-Turrax), each excipient sample was aliquoted in amber vials, approximately 10% water was added in each excipient aliquot, and bench scale gel stripe OET-004037 was also made and added in a separate set of aliquot samples at approximately 1:1 w/w.
All samples were stored at 40° C./75% relative humidity (RH) condition (Model: Lunaire environmental chamber) and tested by developmental reversed phase HPLC method for Assay/Related Substances at T=0, 2 weeks, and 1 month.

[4] = in Fractionated coconut oil, 10% water, T = 2 weeks
[5] = in Fractionated coconut oil, Control, T = 0
[6] = in Fractionated coconut oil, Control, T = 2 weeks
[7] = in Fractionated coconut oil, Gel Stripe (1:1 w/w), T = 2 weeks
[8] = in Labrasol ALF, 10% water, T = 1 months
[9] = in Labrasol ALF, 10% water, T = 2 weeks
[10] = in Labrasol ALF, Control, T = 0
[11] = in Labrasol ALF, Control, T = 1 months
[12] = in Labrasol ALF, Control, T = 2 weeks
[13] = in Labrasol ALF, Gel Stripe (1:1 w/w), T = 1 months
[14] = in Labrasol ALF, Gel Stripe (1:1 w/w), T = 2 weeks
[15] = in Maisine CC, 10% water, T = 1 months
[16] = in Maisine CC, 10% water, T = 2 weeks
[17] = in Maisine CC, Control, T = 1 months
[18] = in Maisine CC, Control, T = 2 weeks
[19] = in Maisine CC, Gel Stripe (1:1 w/w), T = 1 months
[20] = in Maisine CC, Gel Stripe (1:1 w/w), T = 2 weeks
[21] = in Masester E8120, 10% water, T = 1 months
[22] = in Masester E8120, 10% water, T = 2 weeks
[23] = in Masester E8120, Control, T = 0
[24] = in Masester E8120, Control, T = 1 months
[25] = in Masester E8120, Control, T = 2 weeks
[26] = in Masester E8120, Gel Stripe (1:1 w/w), T = 1 months
[27] = in Masester E8120, Gel Stripe (1:1 w/w), T = 2 weeks
[28] = in Oleic acid, 10% water, T = 2 weeks
[29] = in Oleic acid, Control, T = 2 weeks
[30] = in Oleic acid, Gel Stripe (1:1 w/w), T = 2 weeks
[31] = in PEG 400, 10% water, T = 2 weeks
[32] = in PEG 400, Control, T = 2 weeks
[33] = in PEG 400, Gel Stripe (1:1 w/w), T = 2 weeks
[34] = in Tween 80, 10% water, T = 1 months
[35] = in Tween 80, 10% water, T = 2 weeks
[36] = in Tween 80, Control, T = 1 months
[37] = in Tween 80, Control, T = 2 weeks
[38] = in Tween 80, Gel Stripe (1:1 w/w), T = 1 months
[39] = in Tween 80, Gel Stripe (1:1 w/w), T = 2 weeks
[40] = in Vitamin E TPGS, 10% water, T = 1 months
[41] = in Vitamin E TPGS, 10% water, T = 2 weeks
[42] = in Vitamin E TPGS, Control, T = 0
[43] = in Vitamin E TPGS, Control, T = 1 months
[44] = in Vitamin E TPGS, Control, T = 2 weeks
[45] = in Vitamin E TPGS, Gel Stripe (1:1 w/w), T = 1 months
[46] = in Vitamin E TPGS, Gel Stripe (1:1 w/w), T = 2 weeks

Substance: ivermectin
- Solubility ([1]; in Capryol 90, 25° C.): 150.92 mg/g
- Solubility ([1]; in Fractionated Coconut oil, 25° C.): 16.55 mg/g
- Solubility ([1]; in Glycerin, 25° C.): <0.1 mg/g
- Solubility ([1]; in Kolliphor EL, 25° C.): 95.85 mg/g
- Solubility ([1]; in Labrafil M 2125 CS, 25° C.): 35.32 mg/g
- Solubility ([1]; in Labrasol ALF, 25° C.): 126.36 mg/g
- Solubility ([1]; in LauroglycolTM FCC, 25° C.): 71.96 mg/g
- Solubility ([1]; in Maisine CC, 25° C.): 60.17 mg/g
- Solubility ([1]; in Masester E8120, 25° C.): 164.06 mg/g
- Solubility ([1]; in Medium Chain Triglyceride, 25° C.): 16.49 mg/g
- Solubility ([1]; in Oleic acid, 25° C.): 48.58 mg/g
- Solubility ([1]; in Olive oil, 25° C.): 4.71 mg/g
- Solubility ([1]; in PEG 400, 25° C.): 112.92 mg/g
- Solubility ([1]; in Propylene glycol, 25° C.): 25.61 mg/g
- Solubility ([1]; in Soybean oil, 25° C.): 6.72 mg/g
- Solubility ([1]; in Span 20, 25° C.): 97.66 mg/g
- Solubility ([1]; in Span 80, 25° C.): 54.04 mg/g
- Solubility ([1]; in Triacetin, 25° C.): 58.75 mg/g
- Solubility ([1]; in Tween 80, 25° C.): 88.26 mg/g
- Solubility ([1]; in Vitamin E TPGS, table title 25° C., text b171: conducted at 40° C.): 82.98 mg/g
- AUC(0-t) [2]: 8259.31 ± 1032.95 ng·h/mL
- AUC(0-∞) [2]: 8273.53 ng·h/mL
- Cmax [2]: 1722.67 ng/mL
- MRT(0-t) [2]: 10.58 h
- MRT(0-∞) [2]: 10.81 h
- T1/2 [2]: 14.82 ± 0.72 h
- Tmax [2]: 0.50 h
- chemical compatibility with the API ([3]; PEG 400 as co-solvent): poor chemical compatibility
- chemical compatibility with the API ([3]; Tween 80): less stability over time
- chemical compatibility with the API ([3]; Vitamin E TPGS, compared with Tween 80 and Labrasol ALF): best chemical compatibility
- Chromatographic purity by HPLC (% area) [3, 4]: 97.83 % area
- Total Impurities % (% adjusted area) [3, 4]: <LOQ
- Chromatographic purity by HPLC (% area) [3, 5]: 95.61 % area
- Total Impurities % (% adjusted area) [3, 5]: <LOQ
- Chromatographic purity by HPLC (% area) [3, 6]: 97.94 % area
- Total Impurities % (% adjusted area) [3, 6]: <LOQ
- Chromatographic purity by HPLC (% area) [3, 7]: 94.42 % area
- Total Impurities % (% adjusted area) [3, 7]: 3.28 % adjusted area
- Chromatographic purity by HPLC (% area) [3, 8]: 89.91 % area
- Total Impurities % (% adjusted area) [3, 8]: 8.76 % adjusted area
- Chromatographic purity by HPLC (% area) [3, 9]: 93.91 % area
- Total Impurities % (% adjusted area) [3, 9]: 3.46 % adjusted area
- Chromatographic purity by HPLC (% area) [3, 10]: 97.74 % area
- Total Impurities % (% adjusted area) [3, 10]: <LOQ
- Chromatographic purity by HPLC (% area) [3, 11]: 81.35 % area
- Total Impurities % (% adjusted area) [3, 11]: 20.49 % adjusted area
- Chromatographic purity by HPLC (% area) [3, 12]: 89.16 % area
- Total Impurities % (% adjusted area) [3, 12]: 8.67 % adjusted area
- Chromatographic purity by HPLC (% area) [3, 13]: 96.49 % area
- Total Impurities % (% adjusted area) [3, 13]: 1.06 % adjusted area
- Chromatographic purity by HPLC (% area) [3, 14]: 97.11 % area
- Total Impurities % (% adjusted area) [3, 14]: 0.30 % adjusted area
- Chromatographic purity by HPLC (% area) [3, 15]: 96.83 % area
- Total Impurities % (% adjusted area) [3, 15]: 0.69 % adjusted area
- Chromatographic purity by HPLC (% area) [3, 16]: 95.90 % area
- Total Impurities % (% adjusted area) [3, 16]: 0.45 % adjusted area
- Chromatographic purity by HPLC (% area) ([3]; in Maisine CC, Control, T = 0): 97.13 % area
- Total Impurities % (% adjusted area) ([3]; in Maisine CC, Control, T = 0): 0.58 % adjusted area
- Chromatographic purity by HPLC (% area) [3, 17]: 96.82 % area
- Total Impurities % (% adjusted area) [3, 17]: 0.71 % adjusted area
- Chromatographic purity by HPLC (% area) [3, 18]: 96.00 % area
- Total Impurities % (% adjusted area) [3, 18]: 0.35 % adjusted area
- Chromatographic purity by HPLC (% area) [3, 19]: 96.94 % area
- Total Impurities % (% adjusted area) [3, 19]: 0.58 % adjusted area
- Chromatographic purity by HPLC (% area) [3, 20]: 96.15 % area
- Total Impurities % (% adjusted area) [3, 20]: 0.33 % adjusted area
- Chromatographic purity by HPLC (% area) [3, 21]: 91.68 % area
- Total Impurities % (% adjusted area) [3, 21]: 6.60 % adjusted area
- Chromatographic purity by HPLC (% area) [3, 22]: 95.11 % area
- Total Impurities % (% adjusted area) [3, 22]: 2.27 % adjusted area
- Chromatographic purity by HPLC (% area) [3, 23]: 97.58 % area
- Total Impurities % (% adjusted area) [3, 23]: 0.17 % adjusted area
- Chromatographic purity by HPLC (% area) [3, 24]: 97.06 % area
- Total Impurities % (% adjusted area) [3, 24]: 0.45 % adjusted area
- Chromatographic purity by HPLC (% area) [3, 25]: 96.81 % area
- Total Impurities % (% adjusted area) [3, 25]: 0.58 % adjusted area
- Chromatographic purity by HPLC (% area) [3, 26]: 97.31 % area
- Total Impurities % (% adjusted area) [3, 26]: 0.18 % adjusted area
- Chromatographic purity by HPLC (% area) [3, 27]: 97.35 % area
- Total Impurities % (% adjusted area) [3, 27]: 0.11 % adjusted area
- Chromatographic purity by HPLC (% area) [3, 28]: 86.02 % area
- Total Impurities % (% adjusted area) [3, 28]: 9.89 % adjusted area
- Chromatographic purity by HPLC (% area) ([3]; in Oleic acid, Control, T = 0): 99.60 % area
- Total Impurities % (% adjusted area) ([3]; in Oleic acid, Control, T = 0): <LOQ
- Chromatographic purity by HPLC (% area) [3, 29]: 83.55 % area
- Total Impurities % (% adjusted area) [3, 29]: 17.27 % adjusted area
- Chromatographic purity by HPLC (% area) [3, 30]: 83.73 % area
- Total Impurities % (% adjusted area) [3, 30]: 11.82 % adjusted area
- Chromatographic purity by HPLC (% area) [3, 31]: 94.35 % area
- Total Impurities % (% adjusted area) [3, 31]: 3.15 % adjusted area
- Chromatographic purity by HPLC (% area) ([3]; in PEG 400, Control, T = 0): 97.58 % area
- Total Impurities % (% adjusted area) ([3]; in PEG 400, Control, T = 0): 0.10 % adjusted area
- Chromatographic purity by HPLC (% area) [3, 32]: 89.36 % area
- Total Impurities % (% adjusted area) [3, 32]: 8.54 % adjusted area
- Chromatographic purity by HPLC (% area) [3, 33]: 96.92 % area
- Total Impurities % (% adjusted area) [3, 33]: 0.50 % adjusted area
- Chromatographic purity by HPLC (% area) [3, 34]: 91.18 % area
- Total Impurities % (% adjusted area) [3, 34]: 6.94 % adjusted area
- Chromatographic purity by HPLC (% area) [3, 35]: 93.02 % area
- Total Impurities % (% adjusted area) [3, 35]: 3.53 % adjusted area
- Chromatographic purity by HPLC (% area) ([3]; in Tween 80, Control, T = 0): 97.53 % area
- Total Impurities % (% adjusted area) ([3]; in Tween 80, Control, T = 0): 0.16 % adjusted area
- Chromatographic purity by HPLC (% area) [3, 36]: 88.45 % area
- Total Impurities % (% adjusted area) [3, 36]: 10.55 % adjusted area
- Chromatographic purity by HPLC (% area) [3, 37]: 91.87 % area
- Total Impurities % (% adjusted area) [3, 37]: 4.86 % adjusted area
- Chromatographic purity by HPLC (% area) [3, 38]: 93.51 % area
- Total Impurities % (% adjusted area) [3, 38]: 4.22 % adjusted area
- Chromatographic purity by HPLC (% area) [3, 39]: 93.97 % area
- Total Impurities % (% adjusted area) [3, 39]: 2.43 % adjusted area
- Chromatographic purity by HPLC (% area) [3, 40]: 97.46 % area
- Total Impurities % (% adjusted area) [3, 40]: <LOQ
- Chromatographic purity by HPLC (% area) [3, 41]: 96.99 % area
- Total Impurities % (% adjusted area) [3, 41]: 0.42 % adjusted area
- Chromatographic purity by HPLC (% area) [3, 42]: 97.74 % area
- Total Impurities % (% adjusted area) [3, 42]: <LOQ
- Chromatographic purity by HPLC (% area) [3, 43]: 97.37 % area
- Total Impurities % (% adjusted area) [3, 43]: 0.11 % adjusted area
- Chromatographic purity by HPLC (% area) [3, 44]: 97.43 % area
- Total Impurities % (% adjusted area) [3, 44]: <LOQ
- Chromatographic purity by HPLC (% area) [3, 45]: 97.74 % area
- Total Impurities % (% adjusted area) [3, 45]: <LOQ
- Chromatographic purity by HPLC (% area) [3, 46]: 97.50 % area
- Total Impurities % (% adjusted area) [3, 46]: <LOQ
- chemical compatibility with the API ([3]; oily vehicles Maisine CC, fractionated coconut oil, and oleic acid): good chemical compatibility
